Assay [1] has as its target T1, PDE1C (Homo sapiens, UniProt Q14123).
T1 construct: endogenous in cells
The assay can be described thus: Kinobead competition assay. As to conditions: dose-dependent binding; read-out: affinity PDE1C. The source says:
(§1) The binding of KV-24 and KV-30 to the nucleotide-binding pocket raises the question of whether these compounds also target other nucleotide-binding proteins, such as kinases. To evaluate potential off-target effects, we performed Kinobead competition assays. This chemoproteomic approach is conceptually very similar to the one used here in that broad spectrum kinase inhibitors are immobilized on beads. […] PDE1C is a cAMP/cGMP nucleotide-binding protein that features two divalent metal cation cofactors. The hydroxamic acid moiety of KV-24 might chelate these metal cofactors, supporting the hypothesis that KV-24 binds the active site of PDE1C. […] With the help of our chemoproteomic platform, future structure–activity relationship (SAR) libraries based on the KV-24 and KV-30 scaffolds may be explored to improve selectivity toward either HINT1, kinase targets, or PDE1C. […]
(§2) LC-MS/MS. The different sample types were measured with different LC-MS/MS settings. MBLAC2 2-dose competition assays were measured with the Lumos1 setup, MBLAC2 9-dose competition assays were measured with the Lumos2 setup, and kinobeads assays were measured with the Eclipse setup.
(§3) Peptides were analyzed via LC–MS/MS on a Dionex Ultimate3000 nano HPLC coupled to either one of two Orbitrap Fusion Lumos mass spectrometers, or to an Orbitrap Eclipse mass spectrometer, operated via the Thermo Scientific Xcalibur software. […]

Assay [2] deals with T2, MERTK (Homo sapiens, UniProt Q12866).
T2 construct: endogenous in cells
T2 sequence (Q12866 21-999): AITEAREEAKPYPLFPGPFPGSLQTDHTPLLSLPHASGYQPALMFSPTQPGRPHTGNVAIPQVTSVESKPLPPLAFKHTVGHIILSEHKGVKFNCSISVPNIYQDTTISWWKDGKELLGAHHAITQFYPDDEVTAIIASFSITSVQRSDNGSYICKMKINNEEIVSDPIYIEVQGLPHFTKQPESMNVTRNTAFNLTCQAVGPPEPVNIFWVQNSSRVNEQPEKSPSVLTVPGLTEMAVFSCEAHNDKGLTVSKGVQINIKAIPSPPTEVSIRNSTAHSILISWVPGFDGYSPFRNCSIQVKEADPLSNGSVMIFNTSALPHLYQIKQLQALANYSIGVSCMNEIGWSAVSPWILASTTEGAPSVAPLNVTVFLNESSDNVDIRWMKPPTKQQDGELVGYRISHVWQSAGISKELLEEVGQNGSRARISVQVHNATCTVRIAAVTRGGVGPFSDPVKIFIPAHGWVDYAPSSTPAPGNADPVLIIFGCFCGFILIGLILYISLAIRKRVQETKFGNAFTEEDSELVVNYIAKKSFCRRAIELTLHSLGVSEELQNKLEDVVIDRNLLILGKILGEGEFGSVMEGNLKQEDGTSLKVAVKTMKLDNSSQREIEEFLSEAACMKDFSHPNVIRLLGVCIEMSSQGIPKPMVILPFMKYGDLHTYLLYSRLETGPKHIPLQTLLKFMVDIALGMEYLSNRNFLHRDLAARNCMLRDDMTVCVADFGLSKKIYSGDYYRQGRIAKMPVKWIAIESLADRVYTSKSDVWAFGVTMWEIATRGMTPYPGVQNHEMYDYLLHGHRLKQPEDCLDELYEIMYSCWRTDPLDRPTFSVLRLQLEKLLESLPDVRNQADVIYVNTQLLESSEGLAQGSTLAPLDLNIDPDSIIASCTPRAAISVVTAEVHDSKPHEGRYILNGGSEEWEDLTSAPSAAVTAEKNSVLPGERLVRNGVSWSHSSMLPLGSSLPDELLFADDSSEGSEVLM
The assay can be described thus: Kinobead competition assay. As to conditions: only kinase among >190. Format: binding.
Source text: as §1, §2, §3

Experimental findings from article PMC12186257, “Serendipitous and Systematic Chemoproteomic Discovery of MBLAC2, HINT1, and NME1‑4 Inhibitors from Histone Deacetylase-Targeting Pharmacophores” (ACS Chemical Biology, 2025) are described below.

T1 sequence (Q14123 whole entry): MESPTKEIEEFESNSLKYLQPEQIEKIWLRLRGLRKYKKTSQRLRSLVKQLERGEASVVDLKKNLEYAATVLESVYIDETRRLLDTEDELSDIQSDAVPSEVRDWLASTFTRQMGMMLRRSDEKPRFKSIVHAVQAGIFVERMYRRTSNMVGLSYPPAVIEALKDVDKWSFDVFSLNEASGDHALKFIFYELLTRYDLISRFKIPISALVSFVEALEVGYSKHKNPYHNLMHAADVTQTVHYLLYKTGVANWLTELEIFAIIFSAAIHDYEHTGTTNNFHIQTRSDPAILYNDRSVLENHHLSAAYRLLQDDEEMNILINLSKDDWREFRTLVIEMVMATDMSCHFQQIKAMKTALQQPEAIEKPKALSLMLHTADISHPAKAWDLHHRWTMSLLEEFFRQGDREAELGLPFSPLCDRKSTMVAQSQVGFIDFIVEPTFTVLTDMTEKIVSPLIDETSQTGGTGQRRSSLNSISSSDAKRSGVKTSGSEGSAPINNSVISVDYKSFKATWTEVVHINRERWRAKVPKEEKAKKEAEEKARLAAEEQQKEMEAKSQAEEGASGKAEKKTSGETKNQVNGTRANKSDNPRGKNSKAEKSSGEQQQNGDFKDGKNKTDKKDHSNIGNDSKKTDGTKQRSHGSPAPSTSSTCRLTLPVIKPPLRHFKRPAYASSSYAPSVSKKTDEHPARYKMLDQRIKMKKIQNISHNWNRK

Regarding `O=C(NO)c1ccc(-c2nc3ccccc3n3cccc23)cc1` [KV-24], the Kd in assay [1] was approximately 2000 nM.

In the case of `O=C(NO)c1ccc(-c2nc3ccccc3c3ccccc23)cc1` [KV-30], in assay [2], the “MERTK binding” value is reported as “potential binding”.
